{"source": "patent US7863297B2", "about": "“Methods of using 4-(amino)-2-(2,6-dioxo(3-piperidly))-isoindoline-3-dione for the treatment of myelodysplastic syndromes” (Celgene Corporation, priority 2002, dated 2011)", "key": {"MDS patients [1]": {"test_system": "MDS patients", "test": "Expanded clinical study with additional 16 MDS patients", "format": "in vivo, human", "source_text": "The clinical study was expanded with additional 16 MDS patients for at least eight weeks. According to the IPSS, 13 of these patients were categorized as low- or intermediate-1-risk patients and three patients were grouped as intermediate-2- or high-risk patients. According to the FAB classification, there were 11 patients with refractory anemia (RA) or RA with ringed sideroblasts (RARS), and five patients with RA with excess blasts (RAEB), RAEB in transformation (RAEB-T). […] Among these 16 patients who completed at least 8 weeks of monitoring, nine patients achieved an erythroid response as assessed by the International MDS Working Group Criteria. The erythroid responses consisted of transfusion independence in seven previously transfusion-dependent patients, a >2 g/dL rise in blood hemoglobin concentration in one patient in with transfusion-independent anemia, and a >50% decrease in RBC transfusion requirement in one transfusion-dependent patient. […] In addition, complete cytogenetic responses developed in five in eight patients with abnormal karyotypes at baseline. These five patients with complete cytogenetic responses all had the Del5q31-33 abnormality, which has been discovered to be a good prognostic factor for MDS. Indeed, all five patients who enrolled in this study with 5q-syndrome achieved a complete cytogenetic response and a major erythroid response."}, "TNF-α production [2]": {"test_system": "TNF-α production", "conditions": "LPS-stimulated human whole blood, cited from earlier work"}, "MDS patients [3]": {"test_system": "MDS patients", "test": "Clinical study in MDS patients with RBC transfusion-dependence or symptomatic anemia"}, "AML cells": {"test_system": "AML cells", "test": "Mitogenic response to VEGF in AML cells", "format": "cell-based", "conditions": "by extinguishing ligand-induced Akt-phosphorylation"}, "[4]": {"test_system": "bone marrow progenitor formation", "test": "MDS vs normal bone marrow progenitor formation in pre-clinical models", "format": "cell-based"}, "[5]": {"test_system": "production of various cytokines", "test": "In vitro studies of effects on production of various cytokines, potency compared with thalidomide", "format": "cell-based", "conditions": "in vitro cytokine production studies", "source_text": "The results of these studies are described below."}, "TNF-α production [6]": {"test_system": "TNF-α production", "conditions": "LPS-stimulated PBMC, cited from earlier work; for IC50: read-out: IC50 for inhibiting production of TNF-α"}, "MDS patients [7]": {"test_system": "MDS patients", "conditions": "MDS patients treated with recombinant human EPO; cited from earlier work"}, "[8]": {"conditions": "25 mg daily, initial ten patients"}, "[9]": {"conditions": "hematologic responses, nine evaluable"}}, "note": "Where two headings read alike, the source gives them in different places."}
{"molecule": "Nc1cccc2c1CN(C1CCC(=O)NC1=O)C2=O", "note": "(stereo not shown)", "values": [{"measurement": "patients with 5q-syndrome who achieved a complete cytogenetic response and a major erythroid response", "setting": "MDS patients [1]; all enrolled patients with 5q-syndrome", "value": "five"}, {"measurement": "need for dose reduction by completion of eight weeks therapy", "setting": "MDS patients [1]; all patients with starting dose of 25 mg", "value": "required dose reduction"}, {"measurement": "patients who achieved an erythroid response (International MDS Working Group Criteria)", "setting": "MDS patients [1]; among 16 patients with at least 8 weeks of monitoring, start 25 mg or 10 mg daily", "value": "nine"}, {"measurement": "apoptotic index for myelodysplastic progenitors", "setting": "MDS patients [1]; association with therapy", "value": "increased apoptotic index"}, {"measurement": "normal hematopoietic progenitor cells", "setting": "MDS patients [1]; association with therapy", "value": "recovery of normal hematopoietic progenitor cells"}, {"measurement": "transfusion independence in previously transfusion-dependent patients", "setting": "MDS patients [1]; erythroid responses", "value": "seven"}, {"measurement": "minor platelet response", "setting": "MDS patients [1]; human, in vivo", "value": "One"}, {"measurement": "complete cytogenetic responses", "setting": "MDS patients [1]; in eight patients with abnormal karyotypes at baseline", "value": "five"}, {"measurement": "major erythroid response", "setting": "MDS patients [1]; of 16 patients", "value": "eight"}, {"measurement": "minor erythroid response", "setting": "MDS patients [1]; of 16 patients", "value": "one"}, {"measurement": ">50% decrease in RBC transfusion requirement", "setting": "MDS patients [1]; transfusion-dependent patient", "value": "one"}, {"measurement": ">2 g/dL rise in blood hemoglobin concentration", "setting": "MDS patients [1]; transfusion-independent anemia", "value": "one"}, {"measurement": "IC50 for inhibiting production of TNF-α", "setting": "TNF-α production [2]", "value": "~0.1036", "unit": "µg/mL"}, {"measurement": "IC50", "setting": "TNF-α production [2]; read-out: IC50 for inhibiting production of TNF-α", "value": "~480", "unit": "nM"}, {"measurement": "tolerability", "setting": "MDS patients [3]; 10 mg continuous oral daily dose", "value": "well-tolerated with minimal myelosuppression"}, {"measurement": "grade 3 fatigue necessitating dose reduction", "setting": "MDS patients [3]; [8]", "value": 1, "unit": "patient"}, {"measurement": "myelosuppression (higher than grade 3 common toxicity criteria or 50% decrease in leukocyte and platelet counts) necessitating dose reduction", "setting": "MDS patients [3]; [8]", "value": 9, "unit": "patients"}, {"measurement": "patients with IPSS Low/Int-1 who experienced hematologic benefit", "setting": "MDS patients [3]; 6/7 patients with IPSS Low/Int-1", "value": 86, "unit": "%"}, {"measurement": "complete or partial cytogenetic remission (decrease in abnormal metaphases of more than 50%)", "setting": "MDS patients [3]; among five patients evaluable for cytogenetic response", "value": "three"}, {"measurement": "normalization of blast percentage", "setting": "MDS patients [3]; among responders", "value": 1, "unit": "patient"}, {"measurement": "patients who discontinued therapy prematurely (<2 weeks)", "setting": "MDS patients [3]; due to cholecystitis, autoimmune hemolytic anemia, or patient refusal, of 15 patients", "value": "three"}, {"measurement": "RBC transfusion-independence", "setting": "MDS patients [3]; [9]", "value": 4, "unit": "patients"}, {"measurement": "decrease in RBC transfusions of more than 50%", "setting": "MDS patients [3]; [9]", "value": 1, "unit": "patient"}, {"measurement": "increase in Hgb of more than 1.5 g", "setting": "MDS patients [3]; [9]", "value": 1, "unit": "patient"}, {"measurement": "Grade 1,2 drug-related myalgia", "setting": "MDS patients [3]; limited to the 25 mg dose", "value": 1, "unit": "patient"}, {"measurement": "Grade 1,2 drug-related pruritus or itchy scalp", "setting": "MDS patients [3]; limited to the 25 mg dose", "value": 6, "unit": "patients"}, {"measurement": "minor platelet response (increase of more than 30,000/μL)", "setting": "MDS patients [3]; number of responses", "value": "one"}, {"measurement": "evaluable patients who experienced hematologic benefit", "setting": "MDS patients [3]; of nine evaluable patients, oral 25 mg daily reduced to 10 mg, IWG criteria", "value": 66, "unit": "%"}, {"measurement": "overall clinical activity", "setting": "MDS patients [3]; patients with low/intermediate-1 risk MDS", "value": "remarkable erythropoietic and cytogenetic remitting activity"}, {"measurement": "mitogenic response to VEGF", "setting": "AML cells", "value": "abrogates mitogenic response to VEGF in AML cells"}, {"measurement": "MDS vs normal bone marrow progenitor formation", "setting": "[4]", "value": "selectively suppresses MDS vs normal bone marrow progenitor formation"}, {"measurement": "potency relative to thalidomide, in all studies", "setting": "[5]", "value": "at least 50 times"}, {"measurement": "IC50 for inhibiting production of TNF-α", "setting": "TNF-α production [6]", "value": "~0.0259", "unit": "µg/mL"}, {"measurement": "IC50", "setting": "TNF-α production [6]", "value": "~100", "unit": "nM"}]}
{"molecule": "O=C1CCC(N2C(=O)c3ccccc3C2=O)C(=O)N1", "note": "(racemic) [Thalidomide, 2-(2,6-dioxo-3-piperidinyl)-1H-isoindole-1,3(2H)-dione, reference compound]", "values": [{"measurement": "IC50 for inhibiting production of TNF-α", "setting": "TNF-α production [6]", "value": "~50.2", "unit": "µg/mL"}, {"measurement": "IC50", "setting": "TNF-α production [6]", "value": "~194000", "unit": "nM"}]}
{"molecule": "recombinant human EPO: recombinant human erythropoietin (EPO), a hematopoietic growth factor", "values": [{"measurement": "patients with sustained improvement in hemoglobin or decrease in transfusion requirement", "setting": "MDS patients [7]", "value": "less than 25%"}]}
